Data taken from patent US9353081B2, “Bicyclic dihydroquinoline-2-one derivatives” (Hoffmann-La Roche Inc., priority 2011, dated 2016).

Columns and labels:
[1] = tested on: rat model of chronic kidney disease; conditions: cited from earlier work; for plasma aldosterone: FAD286: 4 weeks of treatment, spironolactone: 4 and 8 weeks of treatment; for angiotensin II and salt-stimulated PAI-1 mRNA expression in the aorta and the heart / cardiac and aortic medial hypertrophy / renal effects of angiotensin II and high salt (albuminuria, azotemia, renovascular hypertrophy, glomerular injury, PAI-1 and osteopontin mRNA, tubulointerstitial fibrosis): rat CKD model
[2] = tested on: rats with experimental heart failure; conditions: cited from earlier work
[3] = tested on: patients with primary aldosteronism; conditions: cited from earlier work
human CYP11B2 = human CYP11B2 (Homo sapiens (Human), UniProt P19099); assay: G-402 cellular enzyme assay, human CYP11B2 (aldosterone release, HTRF); type: cell-based; conditions: G-402 cells expressing human CYP11B2; 1 μM Deoxycorticosterone
human CYP11B1 = human CYP11B1 (Homo sapiens (Human), UniProt P15538); assay: G-402 cellular enzyme assay, human CYP11B1 (cortisol release, HTRF); type: cell-based; conditions: G-402 cells expressing human CYP11B1; 1 μM Deoxycortisol
Chain of human CYP11B1 (P15538 25-503): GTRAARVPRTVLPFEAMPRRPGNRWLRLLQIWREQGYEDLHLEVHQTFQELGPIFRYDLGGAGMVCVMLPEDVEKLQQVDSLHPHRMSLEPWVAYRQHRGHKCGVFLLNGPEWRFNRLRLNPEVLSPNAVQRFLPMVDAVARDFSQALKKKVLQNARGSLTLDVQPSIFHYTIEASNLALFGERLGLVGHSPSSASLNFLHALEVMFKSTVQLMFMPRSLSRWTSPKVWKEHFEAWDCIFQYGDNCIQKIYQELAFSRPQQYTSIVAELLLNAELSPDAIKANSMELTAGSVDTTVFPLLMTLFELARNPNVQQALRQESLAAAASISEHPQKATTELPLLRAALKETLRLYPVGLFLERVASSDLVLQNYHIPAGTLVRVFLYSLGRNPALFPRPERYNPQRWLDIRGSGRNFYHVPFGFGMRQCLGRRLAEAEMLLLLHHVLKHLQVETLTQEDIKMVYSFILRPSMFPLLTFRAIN

Chain of human CYP11B2 (P19099 25-503): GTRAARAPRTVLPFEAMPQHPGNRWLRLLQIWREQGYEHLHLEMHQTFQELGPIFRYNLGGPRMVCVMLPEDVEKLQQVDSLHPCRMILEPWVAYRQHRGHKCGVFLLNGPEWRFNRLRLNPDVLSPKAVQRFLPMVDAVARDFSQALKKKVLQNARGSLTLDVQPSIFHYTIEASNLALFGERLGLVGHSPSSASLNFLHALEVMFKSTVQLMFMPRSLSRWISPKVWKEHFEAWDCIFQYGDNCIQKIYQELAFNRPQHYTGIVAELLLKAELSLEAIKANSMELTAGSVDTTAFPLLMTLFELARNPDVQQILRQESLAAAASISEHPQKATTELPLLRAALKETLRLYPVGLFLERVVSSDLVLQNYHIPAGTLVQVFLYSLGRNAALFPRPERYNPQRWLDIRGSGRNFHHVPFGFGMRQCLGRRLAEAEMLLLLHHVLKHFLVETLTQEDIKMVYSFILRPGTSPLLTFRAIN

## N#Cc1ccc(C2CCCc3cncn32)cc1 (stereo not shown) [FAD286]
[1]
  plasma aldosterone: reduced
  angiotensin II and salt-stimulated PAI-1 mRNA expression in the aorta and the heart: not
  cardiac and aortic medial hypertrophy: attenuated
  renal effects of angiotensin II and high salt (albuminuria, azotemia, renovascular hypertrophy, glomerular injury, PAI-1 and osteopontin mRNA, tubulointerstitial fibrosis): prevented these renal effects
[2]
  blood pressure and cardiovascular function and structure: improved
  kidney function and morphology: improve

## CC(=O)S[C@@H]1CC2=CC(=O)CC[C@]2(C)[C@H]2CC[C@@]3(C)[C@@H](CC[C@@]34CCC(=O)O4)[C@H]12 [spironolactone]
[1]
  plasma aldosterone: increased
  angiotensin II and salt-stimulated PAI-1 mRNA expression in the aorta and the heart: enhanced
  cardiac and aortic medial hypertrophy: attenuated
  renal effects of angiotensin II and high salt (albuminuria, azotemia, renovascular hypertrophy, glomerular injury, PAI-1 and osteopontin mRNA, tubulointerstitial fibrosis): prevented these renal effects

## N#Cc1ccc([C@H]2CCc3cncn32)c(F)c1 [LCI699]
[3]
  blood pressure: mildly decreased
  hypokalemia: corrected
  selectivity (effects on the glucocorticoid axis, cortisol synthesis): poor selectivity
[3]; oral
  circulating aldosterone levels: significantly lower

## C[C@H](O)C(=O)NC1CCCc2c(-c3ccc4c(c3)CCC(=O)N4C)cncc21 (stereo partly drawn) [Example 17, (2S)-2-Hydroxy-N-((4R,S)-4-(1-methyl-2-oxo-1,2,3,4-tetrahydroquinolin-6-yl)-5,6,7,8-tetrahydroisoquinolin-8-yl)propanamide]
Human CYP11B2
  EC50: 31.6 nM
Human CYP11B1
  EC50: 885 nM
